US20260216164A1, “INDOLE COMPOUND DECOMPOSING IKZF2, AND USE THEREOF” (KOREA RESEARCH INSTITUTE OF CHEMICAL TECHNOLOGY, priority 2023, published 2026)
Like-named read-outs stand apart in the source and are kept apart here.

Experiments:
Format in all cases: cell-based
[1] = molecular target: IKZF2 (Helios) (Homo sapiens, UniProt Q96SW2+Q9UKS7); experiment: Screening of DC50 (nM) and Dmax (%) using WB-IKZF2 cell line (Western blot); set-up: endogenous in cells; details: 6 hours; for DC50: read-out: WB-IKZF2 DC 50
Chain of IKZF2 (Helios) (Q9UKS7 whole entry): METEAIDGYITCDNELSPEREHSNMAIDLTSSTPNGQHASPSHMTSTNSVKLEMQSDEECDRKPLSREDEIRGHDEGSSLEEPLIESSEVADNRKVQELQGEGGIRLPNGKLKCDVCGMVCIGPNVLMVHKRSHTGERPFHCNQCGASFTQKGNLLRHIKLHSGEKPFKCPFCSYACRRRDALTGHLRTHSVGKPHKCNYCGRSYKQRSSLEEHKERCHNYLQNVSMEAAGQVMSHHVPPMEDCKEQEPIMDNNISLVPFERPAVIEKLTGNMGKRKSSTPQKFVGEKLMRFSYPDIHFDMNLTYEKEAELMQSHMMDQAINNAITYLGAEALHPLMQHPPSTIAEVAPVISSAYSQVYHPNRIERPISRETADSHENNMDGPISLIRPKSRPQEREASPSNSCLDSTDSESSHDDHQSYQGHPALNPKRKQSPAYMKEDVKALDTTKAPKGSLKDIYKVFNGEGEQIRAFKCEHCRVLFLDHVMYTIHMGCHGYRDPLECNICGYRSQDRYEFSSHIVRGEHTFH
Chain of IKZF2 (Helios) (Q96SW2 whole entry): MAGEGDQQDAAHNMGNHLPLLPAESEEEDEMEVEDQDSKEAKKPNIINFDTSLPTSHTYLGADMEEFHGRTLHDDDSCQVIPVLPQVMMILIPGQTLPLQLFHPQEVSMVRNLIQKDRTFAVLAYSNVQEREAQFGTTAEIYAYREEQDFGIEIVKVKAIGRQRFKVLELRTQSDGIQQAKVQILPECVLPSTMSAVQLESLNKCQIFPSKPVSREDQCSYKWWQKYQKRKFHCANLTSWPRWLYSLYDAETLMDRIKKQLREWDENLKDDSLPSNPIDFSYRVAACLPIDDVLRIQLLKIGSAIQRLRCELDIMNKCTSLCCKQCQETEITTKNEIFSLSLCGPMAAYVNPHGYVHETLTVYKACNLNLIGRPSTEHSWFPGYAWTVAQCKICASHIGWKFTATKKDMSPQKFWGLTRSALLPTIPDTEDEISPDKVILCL
Chain of IKZF2 (Helios) (Q16531 whole entry partner): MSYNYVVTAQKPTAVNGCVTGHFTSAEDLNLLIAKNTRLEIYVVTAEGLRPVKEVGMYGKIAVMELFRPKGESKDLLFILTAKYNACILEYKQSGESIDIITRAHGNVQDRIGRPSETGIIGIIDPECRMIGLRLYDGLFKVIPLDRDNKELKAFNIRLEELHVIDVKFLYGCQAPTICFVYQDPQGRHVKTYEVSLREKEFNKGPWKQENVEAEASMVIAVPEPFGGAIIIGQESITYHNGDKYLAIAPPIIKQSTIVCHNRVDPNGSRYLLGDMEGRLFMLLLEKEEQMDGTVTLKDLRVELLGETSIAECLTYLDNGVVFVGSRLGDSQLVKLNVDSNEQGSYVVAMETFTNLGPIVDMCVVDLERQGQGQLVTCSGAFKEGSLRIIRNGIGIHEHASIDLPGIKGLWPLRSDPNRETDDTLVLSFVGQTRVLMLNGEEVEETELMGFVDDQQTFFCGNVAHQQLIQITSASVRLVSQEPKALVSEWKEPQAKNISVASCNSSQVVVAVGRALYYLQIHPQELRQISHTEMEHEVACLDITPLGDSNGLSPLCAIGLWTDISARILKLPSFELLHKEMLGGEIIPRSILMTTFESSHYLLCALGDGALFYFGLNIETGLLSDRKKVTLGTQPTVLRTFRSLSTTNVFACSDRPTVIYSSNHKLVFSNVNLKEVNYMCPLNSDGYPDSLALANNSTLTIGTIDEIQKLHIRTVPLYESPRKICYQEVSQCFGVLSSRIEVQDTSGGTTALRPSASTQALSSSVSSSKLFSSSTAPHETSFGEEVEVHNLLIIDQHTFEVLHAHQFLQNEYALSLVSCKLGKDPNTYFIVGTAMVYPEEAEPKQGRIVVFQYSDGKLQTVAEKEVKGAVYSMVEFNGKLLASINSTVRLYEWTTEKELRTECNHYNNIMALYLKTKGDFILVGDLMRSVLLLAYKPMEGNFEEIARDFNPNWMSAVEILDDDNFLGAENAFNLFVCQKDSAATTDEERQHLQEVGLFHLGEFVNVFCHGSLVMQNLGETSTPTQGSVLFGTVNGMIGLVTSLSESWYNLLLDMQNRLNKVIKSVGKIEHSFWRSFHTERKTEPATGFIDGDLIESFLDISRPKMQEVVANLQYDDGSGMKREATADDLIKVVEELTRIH
Description: Experimental Example 2. Screening of DC50 (nM) and Dmax (%) Using WB-IKZF2 Cell Line
Candidate degraders were serially diluted and treated in cells cultured in complete medium, followed by incubation for 6 hours at 37° C. in a CO2 incubator. After 6 hours, the cells were harvested and lysed in RIPA buffer (150 mM NaCl, 1% Triton X-100, 1% sodium deoxycholate, 0.1% SDS, 50 mM Tris-HCl pH 7.5, and 2 mM EDTA) containing a protease inhibitor cocktail (Roche). The mixture was vortexed every 10 minutes and incubated on ice for 30 minutes, followed by centrifugation at 13,000 rpm for 10 minutes at 4° C. to isolate proteins. The isolated proteins were quantified using the Bradford assay (Bio-Rad, 5000006). Proteins were separated on 8% SDS-polyacrylamide gel, transferred onto nitrocellulose membranes (Amersham, 10600002), and incubated with primary antibodies at 4° C. for 18 hours. The following primary antibodies were used: anti-Helios rabbit monoclonal antibody (Cell Signaling, 42427, 1:3000) and anti-β-actin mouse monoclonal antibody (Santa Cruz, sc-47778, 1:5000). β-actin was used as a loading control. The next day, the membranes were washed with 1×TBST for 30 minutes and incubated with HRP-conjugated secondary antibodies corresponding to the primary antibodies at room temperature for 1 hour. The following secondary antibodies were used: anti-mouse IgG HRP-linked antibody (Sigma, A9044, 1:5000) and anti-rabbit IgG HRP-linked antibody (Cell Signaling, 7074, 1:5000). After washing with 1×TBST for 30 minutes, protein expression was visualized using the Pierce ECL Western blotting substrate (Thermo Fisher, 32106), and images were captured using a chemiluminescence image analysis system (GE Healthcare, AI680). The obtained images were quantified using the ImageJ software.

[2] = molecular target: Helios (IKZF2) (Homo sapiens, UniProt Q96SW2+Q9UKS7); experiment: Screening of Helios protein degraders using Nano-Glo HiBiT cell line (HiBiT-IKZF2); details: 6 hours, HiBiT-Helios knock-in Jurkat cells; for remaining activity at 1 µM: compound 1 μM, read-out: HiBiT-IKZF2 Residual amount of Helios (%) 1 μM; for remaining activity at 10 µM: compound 10 μM, read-out: HiBiT-IKZF2 Residual amount of Helios (%) 10 μM
Chain of Helios (IKZF2) (Q9UKS7 whole entry): as the sequence (Q9UKS7 whole entry) above
Chain of Helios (IKZF2) (Q96SW2 whole entry): as the sequence (Q96SW2 whole entry) above
Chain of Helios (IKZF2) (Q16531 whole entry partner): as the sequence (Q16531 whole entry partner) above

[3] = molecular target: T1, Helios protein (Homo sapiens, UniProt Q96SW2+Q9UKS7); experiment: Measurement of Helios protein degradation using Western blot analysis in Jurkat cells (FIG. 1); details: 6 hours
T1 construct: endogenous in cells; host or cells: Jurkat cells
T1 sequence (Q9UKS7 whole entry): as the sequence (Q9UKS7 whole entry) above
T1 sequence (Q96SW2 whole entry): as the sequence (Q96SW2 whole entry) above
T1 sequence (Q16531 whole entry partner): as the sequence (Q16531 whole entry partner) above
Description: To confirm the degradation of Helios protein by the degrader, Western blot analysis was performed. Jurkat cells (5×10^6) in complete medium were treated with serial dilutions of the compound at 37° C. in a CO2 incubator for 6 hours.
After harvesting the cells, they were lysed in RIPA buffer (LPS solution, CRB002) containing a protease inhibitor cocktail (Roche). The lysates were incubated on ice for 30 minutes with vortexing every 10 minutes, followed by centrifugation at 13,000 rpm for 10 minutes at 4° C. to isolate the cell lysates. The lysates were quantified using the Bradford assay (Bio-Rad, 5000006).
30 μg of the lysates were separated by 8% SDS-polyacrylamide gel electrophoresis (SDS-PAGE), and the proteins were transferred to a nitrocellulose (NC) membrane (Amersham, 10600002), followed by incubation with primary antibodies at 4° C. for 18 hours. […]
After washing with 1×TBST for 30 minutes, protein expression was visualized using Pierce ECL Western blotting substrate (Thermo Fisher, 32106), and the images were acquired using a chemiluminescence imaging system (GE Healthcare, AI680). The resulting images were quantified using ImageJ software. The results of Helios protein degradation measured with compound 39 of the present disclosure and comparative compound DKY709 are shown in FIG. 1.

[4] = molecular target: IKZF2 over IKZF1, IKZF3, and IKZF4 (Homo sapiens, UniProt Q96SW2+Q9UKS7); experiment: Selective degradation of IKZF2 over IKZF1, IKZF3 and IKZF4

Compound `Cc1c(C(=O)N2CCC(c3ccc4c(c3)CN(C3CCC(=O)NC3=O)C4=O)CC2)[nH]c2c(F)c(Cl)ccc12` (centres unmarked) [Compound 99, 3-(5-(1-(6-chloro-7-fluoro-3-methyl-1H-indole-2-carbonyl)piperidin-4-yl)-1-oxoinsoindolin-2-yl)piperidine-2,6-dione] has a DC50 ([1]; class symbols) of 10 to 100 nM, a remaining activity at 1 µM [2] of 10.9% and a remaining activity at 10 µM [2] of 14.6%.
`CN(C)Cc1c(C(=O)N2CCC(c3ccc4c(c3)CN(C3CCC(=O)NC3=O)C4=O)CC2)[nH]c2cc(Cl)ccc12` (centres unmarked) [Compound 87, 3-(5-(1-(6-chloro-3-((dimethylamino)methyl)-1H-indole-2-carbonyl)piperidin-4-yl)-1-oxoinsoindolin-2-yl)piperidine-2,6-dione] showed a DC50 ([1]; class symbols) of 100 to 1000 nM and a remaining activity at 10 µM [2] of 8.7%.
For `Cc1c(C(=O)N2CCC(c3ccc4c(c3F)CN(C3CCC(=O)NC3=O)C4=O)CC2)[nH]c2cc(Cl)c(F)cc12` (centres unmarked) [Compound 113, 3-(5-(1-(6-chloro-5-fluoro-3-methyl-1H-indole-2-carbonyl)piperidin-4-yl)-4-fluoro-1-oxoinsoindolin-2-yl)piperidine-2,6-dione], the Dmax [1] was 96%, the DC50 ([1]; class symbols) was < 10 nM and the remaining activity at 1 µM [2] was 14.1%.
With `Cc1c(C(=O)N2CCC(c3ccc4c(c3F)CN(C3CCC(=O)NC3=O)C4=O)CC2)[nH]c2cc(Cl)c(O)cc12` (centres unmarked) [Compound 115, 3-(5-(1-(6-chloro-5-hydroxy-3-methyl-1H-indole-2-carbonyl)piperidin-4-yl)-4-fluoro-1-oxoinsoindolin-2-yl)piperidine-2,6-dione] the Dmax [1] was 100%, the DC50 ([1]; class symbols) was < 10 nM and the remaining activity at 1 µM [2] was 34.6%.
For `Cc1c(C(=O)N2CCC(c3ccc4c(c3)CN(C3CCC(=O)NC3=O)C4=O)CC2)[nH]c2cc(C#N)ccc12` (centres unmarked) [Compound 52, 2-(4-(2-(2,6-dioxopiperidin-3-yl)-1-oxoindolin-5-yl)piperidine-1-carbonyl)-3-methyl-1H-indole-6-carbonitrile], the DC50 ([1]; class symbols) was 10 to 100 nM and the remaining activity at 10 µM [2] was 10.8%.
Work on `Cc1cc2c(C)c(C(=O)N3CCC(c4ccc5c(c4)CN(C4CCC(=O)NC4=O)C5=O)CC3)[nH]c2cc1[N+](=O)[O-]` (centres unmarked) [Compound 85, 3-(5-(1-(3,5-dimethyl-6-nitro-1H-indole-2-carbonyl)piperidin-4-yl)-1-oxoinsoindolin-2-yl)piperidine-2,6-dione] yielded a DC50 ([1]; class symbols) of 100 to 1000 nM and a remaining activity at 10 µM [2] of 11%.
For `Cc1c(C(=O)N2CCC(c3ccc4c(c3F)CN(C3CCC(=O)NC3=O)C4=O)CC2)[nH]c2cc(Cl)ccc12` (centres unmarked) [Compound 91, 3-(5-(1-(6-chloro-3-methyl-1H-indole-2-carbonyl)piperidin-4-yl)-4-fluoro-1-oxoinsoindolin-2-yl)piperidine-2,6-dione], the Dmax [1] was 100%, the DC50 ([1]; class symbols) was < 10 nM and the remaining activity at 10 µM [2] was 6.4%.
`COc1cc2c(C)c(C(=O)N3CCC(c4ccc5c(c4)CN(C4CCC(=O)NC4=O)C5=O)CC3)[nH]c2cc1[N+](=O)[O-]` (centres unmarked) [Compound 97, 3-(5-(1-(5-methoxy-3-methyl-6-nitro-1H-indole-2-carbonyl)piperidin-4-yl)-1-oxoinsoindolin-2-yl)piperidine-2,6-dione] was tested, and the DC50 ([1]; class symbols) was 10 to 100 nM, the remaining activity at 1 µM [2] was 14.6% and the remaining activity at 10 µM [2] was 21.4%.
With `Cc1c(C(=O)N2CCC(c3ccc4c(c3)CN(C3CCC(=O)NC3=O)C4=O)CC2)[nH]c2cc(Cl)ccc12` (centres unmarked) [Compound 39, 3-(5-(1-(6-chloro-3-methyl-1H-indole-2-carbonyl)piperidin-4-yl)-1-oxoinsoindolin-2-yl)piperidine-2,6-dione] the Dmax [1] was 100%, the DC50 ([1]; numeric value) was 0.19 nM and the remaining activity at 1 µM [2] was 6.6%. The remaining activity at 10 µM [2] was 5.5% and the “Helios protein degradation activity compared to comparative compound 1 (DKY709)” value [3] was “more than 1,000 fold”.
With `O=C1CCC(N2Cc3cc(C4CCN(C(=O)c5[nH]c6cc(Cl)ccc6c5CN5CCOCC5)CC4)ccc3C2=O)C(=O)N1` (centres unmarked) [Compound 82, 3-(5-(1-(6-chloro-3-(morpholinomethyl)-1H-indole-2-carbonyl)piperidin-4-yl)-1-oxoinsoindolin-2-yl)piperidine-2,6-dione] the DC50 ([1]; class symbols) was 10 to 100 nM, the “selective degradation activity for IKZF2 over IKZF1, IKZF3, and IKZF4” value [4] was “selective degradation activity for IKZF2 over IKZF1, IKZF3, and IKZF4” and the remaining activity at 10 µM [2] was 7.4%.
